We go through five compounds from ChEMBL document CHEMBL4028801, “A multifactorial approach to hepatobiliary transporter assessment enables improved therapeutic compound development” (Toxicol Sci, 2013).

For data set [1], the target named is ATP-binding cassette sub-family C member 2 (Homo sapiens, UniProt Q92887). The data set can be described thus: Inhibition of human MRP2 overexpressed in Sf9 cell membrane vesicles assessed as uptake of [3H]-estradiol-17beta-D-glucuronide in presence of ATP and GSH measured after 20 mins by membrane vesicle transport assay.
The target in data set [2] is ATP-binding cassette sub-family C member 3 (Homo sapiens, UniProt O15438). The data set is described as follows: Inhibition of human MRP3 overexpressed in Sf9 insect cell membrane vesicles assessed as uptake of [3H]-estradiol-17beta-D-glucuronide in presence of ATP and GSH measured after 10 mins by membrane vesicle transport assay. The data set is classed as ADME, cell-based.

Data set [3] has as its target T1, ATP-binding cassette sub-family C member 4 (Homo sapiens, UniProt O15439).
T1 sequence (O15439 whole entry): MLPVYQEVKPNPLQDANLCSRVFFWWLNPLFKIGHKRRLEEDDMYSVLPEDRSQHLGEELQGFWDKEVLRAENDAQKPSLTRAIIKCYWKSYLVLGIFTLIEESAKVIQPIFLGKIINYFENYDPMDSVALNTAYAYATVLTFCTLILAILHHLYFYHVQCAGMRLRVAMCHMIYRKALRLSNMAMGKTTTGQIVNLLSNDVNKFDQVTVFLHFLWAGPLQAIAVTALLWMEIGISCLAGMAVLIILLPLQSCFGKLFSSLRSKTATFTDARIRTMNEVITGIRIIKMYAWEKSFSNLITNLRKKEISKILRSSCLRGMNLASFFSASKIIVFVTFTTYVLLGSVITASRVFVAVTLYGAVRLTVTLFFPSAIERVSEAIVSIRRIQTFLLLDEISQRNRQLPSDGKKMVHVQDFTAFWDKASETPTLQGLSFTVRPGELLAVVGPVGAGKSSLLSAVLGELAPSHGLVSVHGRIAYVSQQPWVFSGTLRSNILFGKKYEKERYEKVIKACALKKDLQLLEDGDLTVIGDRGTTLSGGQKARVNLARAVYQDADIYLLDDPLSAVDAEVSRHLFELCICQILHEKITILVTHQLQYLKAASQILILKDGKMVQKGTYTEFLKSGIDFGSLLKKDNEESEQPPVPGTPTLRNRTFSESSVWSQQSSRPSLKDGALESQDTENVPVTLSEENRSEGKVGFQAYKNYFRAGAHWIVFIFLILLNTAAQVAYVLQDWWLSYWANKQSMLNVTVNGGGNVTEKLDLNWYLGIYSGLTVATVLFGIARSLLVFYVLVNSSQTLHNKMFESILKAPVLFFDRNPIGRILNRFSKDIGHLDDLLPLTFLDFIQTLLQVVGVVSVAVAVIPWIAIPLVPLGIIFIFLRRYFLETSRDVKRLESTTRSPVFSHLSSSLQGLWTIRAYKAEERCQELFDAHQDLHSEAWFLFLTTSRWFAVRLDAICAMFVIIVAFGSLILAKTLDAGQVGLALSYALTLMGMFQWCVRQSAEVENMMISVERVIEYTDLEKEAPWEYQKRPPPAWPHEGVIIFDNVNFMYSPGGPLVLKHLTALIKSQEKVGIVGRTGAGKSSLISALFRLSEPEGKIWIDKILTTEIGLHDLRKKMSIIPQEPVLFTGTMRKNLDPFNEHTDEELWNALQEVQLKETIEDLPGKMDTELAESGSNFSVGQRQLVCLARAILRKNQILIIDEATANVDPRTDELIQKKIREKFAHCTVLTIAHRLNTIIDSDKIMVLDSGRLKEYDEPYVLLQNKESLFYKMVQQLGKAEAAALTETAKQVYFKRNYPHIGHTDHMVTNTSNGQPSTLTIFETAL
The data set can be described thus: Inhibition of human MRP4 overexpressed in Sf9 cell membrane vesicles assessed as uptake of [3H]-estradiol-17beta-D-glucuronide in presence of ATP and GSH measured after 20 mins by membrane vesicle transport assay. It counts as ADME, cell-based.

Data set [4] is described as follows: AUC in human at 200 mg, po QD after 24 hrs. Details: time < 24 hr, dose 200 mg, route oral. The data set is classed as ADME, organism-based. To be noted: in vivo.
The nature of data set [5]: Drug concentration at steady state in human at 200 mg, po QD after 24 hrs. The data set is classed as ADME, organism-based. To be noted: in vivo, read-out: Css.
Data set [6] is described as follows: Ratio of drug concentration at steady state in human at 200 mg, po QD after 24 hrs to IC50 for human BSEP overexpressed in Sf9 insect cells. It counts as ADME, organism-based. To be noted: in vivo.
A short description of data set [7]: Ratio of drug concentration at steady state in human at 200 mg, po QD after 24 hrs to IC50 for human MRP4 overexpressed in Sf9 insect cells. The data set is classed as ADME, organism-based. The settings on record: in vivo.
In another data set the target is Bile salt export pump (Homo sapiens, UniProt O95342). The data set is described as follows: Inhibition of human BSEP overexpressed in Sf9 cell membrane vesicles assessed as uptake of [3H]-taurocholate in presence of ATP measured after 15 to 20 mins by membrane vesicle transport assay. It counts as ADME, cell-based.
A short description of data set [8]: AUC in human at 75 to 100 mg, po QID after 6 hrs. It counts as ADME, organism-based. To be noted: in vivo.
Data set [9] in a line: Drug concentration at steady state in human at 75 to 100 mg, po QID after 6 hrs. It counts as ADME, organism-based. To be noted: in vivo, read-out: Css.
Data set [10] in a line: Ratio of drug concentration at steady state in human at 75 to 100 mg, po QID after 6 hrs to IC50 for human BSEP overexpressed in Sf9 insect cells. The data set is classed as ADME, organism-based. To be noted: in vivo.
Data set [11] in a line: Ratio of drug concentration at steady state in human at 75 to 100 mg, po QID after 6 hrs to IC50 for human MRP4 overexpressed in Sf9 insect cells. The data set is classed as ADME, organism-based. To be noted: in vivo.
The nature of data set [12]: AUC in human at 200 to 600 mg, po QD after 24 hrs. The data set is classed as ADME, organism-based. To be noted: in vivo.
A short description of data set [13]: Drug concentration at steady state in human at 200 to 600 mg, po QD after 24 hrs. It counts as ADME, organism-based. To be noted: in vivo, read-out: Css.
Data set [14] is described as follows: Ratio of drug concentration at steady state in human at 200 to 600 mg, po QD after 24 hrs to IC50 for human BSEP overexpressed in Sf9 insect cells. The data set is classed as ADME, organism-based. The settings on record: in vivo.
A short description of data set [15]: Ratio of drug concentration at steady state in human at 200 to 600 mg, po QD after 24 hrs to IC50 for human MRP3 overexpressed in Sf9 insect cells. It counts as ADME, organism-based. To be noted: in vivo.
The nature of data set [16]: Ratio of drug concentration at steady state in human at 200 to 600 mg, po QD after 24 hrs to IC50 for human MRP4 overexpressed in Sf9 insect cells. It counts as ADME, organism-based. To be noted: in vivo.
Data set [17] can be described thus: AUC in human at 800 mg, po TID after 8 hrs. The settings on record: in vivo. It counts as ADME, organism-based. Details: dose 800 mg, time < 8 hr, route oral.
A short description of data set [18]: Drug concentration at steady state in human at 800 mg, po TID after 8 hrs. The data set is classed as ADME, organism-based. The settings on record: in vivo, read-out: Css.
The nature of data set [19]: Ratio of drug concentration at steady state in human at 800 mg, po TID after 8 hrs to IC50 for human BSEP overexpressed in Sf9 insect cells. It counts as ADME, organism-based. The settings on record: in vivo.
Data set [20] in a line: Ratio of drug concentration at steady state in human at 800 mg, po TID after 8 hrs to IC50 for human MRP3 overexpressed in Sf9 insect cells. The data set is classed as ADME, organism-based. To be noted: in vivo.
A short description of data set [21]: AUC in human at 80 to 600 mg, po QD after 24 hrs. It counts as ADME, organism-based. To be noted: in vivo.
Data set [22] is described as follows: Drug concentration at steady state in human at 80 to 600 mg, po QD after 24 hrs. The settings on record: in vivo, read-out: Css. The data set is classed as ADME, organism-based.
A short description of data set [23]: Ratio of drug concentration at steady state in human at 80 to 600 mg, po QD after 24 hrs to IC50 for human BSEP overexpressed in Sf9 insect cells. The settings on record: in vivo. The data set is classed as ADME, organism-based.
The nature of data set [24]: Ratio of drug concentration at steady state in human at 80 to 600 mg, po QD after 24 hrs to IC50 for human MRP4 overexpressed in Sf9 insect cells. It counts as ADME, organism-based. The settings on record: in vivo.

The IC50 is the midpoint of a concentration-inhibition curve. For orientation: AUC means the area under the concentration-time curve, a measure of exposure.

Chain of ATP-binding cassette sub-family C member 3 (O15438 whole entry): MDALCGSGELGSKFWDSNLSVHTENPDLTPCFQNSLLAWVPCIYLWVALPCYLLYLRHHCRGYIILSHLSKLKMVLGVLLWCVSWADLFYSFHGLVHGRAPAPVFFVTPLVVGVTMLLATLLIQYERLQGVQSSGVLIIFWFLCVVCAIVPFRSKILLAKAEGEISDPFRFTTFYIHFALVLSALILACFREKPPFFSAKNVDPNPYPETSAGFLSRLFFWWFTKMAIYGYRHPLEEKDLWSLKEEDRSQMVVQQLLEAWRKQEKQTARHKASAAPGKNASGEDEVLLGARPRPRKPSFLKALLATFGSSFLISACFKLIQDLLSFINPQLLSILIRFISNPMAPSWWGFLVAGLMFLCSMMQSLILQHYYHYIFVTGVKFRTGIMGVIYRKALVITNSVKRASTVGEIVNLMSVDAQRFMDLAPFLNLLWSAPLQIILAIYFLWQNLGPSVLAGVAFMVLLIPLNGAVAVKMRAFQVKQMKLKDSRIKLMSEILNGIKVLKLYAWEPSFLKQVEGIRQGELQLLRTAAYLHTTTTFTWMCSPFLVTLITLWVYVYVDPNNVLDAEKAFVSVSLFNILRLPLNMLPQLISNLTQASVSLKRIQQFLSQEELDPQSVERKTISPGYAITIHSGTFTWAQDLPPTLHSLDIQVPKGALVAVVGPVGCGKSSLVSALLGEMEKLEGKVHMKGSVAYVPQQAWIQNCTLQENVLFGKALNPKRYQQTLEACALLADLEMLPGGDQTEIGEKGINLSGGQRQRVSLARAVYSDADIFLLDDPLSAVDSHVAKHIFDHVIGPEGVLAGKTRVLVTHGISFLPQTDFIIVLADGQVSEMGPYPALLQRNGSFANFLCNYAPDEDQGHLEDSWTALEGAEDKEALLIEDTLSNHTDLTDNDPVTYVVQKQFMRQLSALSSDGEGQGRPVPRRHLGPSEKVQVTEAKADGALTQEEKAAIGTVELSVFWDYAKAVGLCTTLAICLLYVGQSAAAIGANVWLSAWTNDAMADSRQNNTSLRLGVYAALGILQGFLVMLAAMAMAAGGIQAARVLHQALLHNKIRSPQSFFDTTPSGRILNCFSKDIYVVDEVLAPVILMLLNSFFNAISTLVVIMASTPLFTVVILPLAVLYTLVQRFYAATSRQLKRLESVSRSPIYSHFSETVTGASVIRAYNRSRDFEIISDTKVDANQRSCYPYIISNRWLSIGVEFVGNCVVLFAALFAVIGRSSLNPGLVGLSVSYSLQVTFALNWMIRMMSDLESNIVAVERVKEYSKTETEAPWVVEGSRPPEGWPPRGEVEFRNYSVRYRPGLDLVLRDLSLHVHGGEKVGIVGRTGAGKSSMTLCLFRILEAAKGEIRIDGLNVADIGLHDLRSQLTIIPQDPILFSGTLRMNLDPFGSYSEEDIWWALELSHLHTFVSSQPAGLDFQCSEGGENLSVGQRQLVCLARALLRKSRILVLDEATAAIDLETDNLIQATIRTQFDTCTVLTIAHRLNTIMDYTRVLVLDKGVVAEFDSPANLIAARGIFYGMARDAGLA
Chain of ATP-binding cassette sub-family C member 2 (Q92887 whole entry): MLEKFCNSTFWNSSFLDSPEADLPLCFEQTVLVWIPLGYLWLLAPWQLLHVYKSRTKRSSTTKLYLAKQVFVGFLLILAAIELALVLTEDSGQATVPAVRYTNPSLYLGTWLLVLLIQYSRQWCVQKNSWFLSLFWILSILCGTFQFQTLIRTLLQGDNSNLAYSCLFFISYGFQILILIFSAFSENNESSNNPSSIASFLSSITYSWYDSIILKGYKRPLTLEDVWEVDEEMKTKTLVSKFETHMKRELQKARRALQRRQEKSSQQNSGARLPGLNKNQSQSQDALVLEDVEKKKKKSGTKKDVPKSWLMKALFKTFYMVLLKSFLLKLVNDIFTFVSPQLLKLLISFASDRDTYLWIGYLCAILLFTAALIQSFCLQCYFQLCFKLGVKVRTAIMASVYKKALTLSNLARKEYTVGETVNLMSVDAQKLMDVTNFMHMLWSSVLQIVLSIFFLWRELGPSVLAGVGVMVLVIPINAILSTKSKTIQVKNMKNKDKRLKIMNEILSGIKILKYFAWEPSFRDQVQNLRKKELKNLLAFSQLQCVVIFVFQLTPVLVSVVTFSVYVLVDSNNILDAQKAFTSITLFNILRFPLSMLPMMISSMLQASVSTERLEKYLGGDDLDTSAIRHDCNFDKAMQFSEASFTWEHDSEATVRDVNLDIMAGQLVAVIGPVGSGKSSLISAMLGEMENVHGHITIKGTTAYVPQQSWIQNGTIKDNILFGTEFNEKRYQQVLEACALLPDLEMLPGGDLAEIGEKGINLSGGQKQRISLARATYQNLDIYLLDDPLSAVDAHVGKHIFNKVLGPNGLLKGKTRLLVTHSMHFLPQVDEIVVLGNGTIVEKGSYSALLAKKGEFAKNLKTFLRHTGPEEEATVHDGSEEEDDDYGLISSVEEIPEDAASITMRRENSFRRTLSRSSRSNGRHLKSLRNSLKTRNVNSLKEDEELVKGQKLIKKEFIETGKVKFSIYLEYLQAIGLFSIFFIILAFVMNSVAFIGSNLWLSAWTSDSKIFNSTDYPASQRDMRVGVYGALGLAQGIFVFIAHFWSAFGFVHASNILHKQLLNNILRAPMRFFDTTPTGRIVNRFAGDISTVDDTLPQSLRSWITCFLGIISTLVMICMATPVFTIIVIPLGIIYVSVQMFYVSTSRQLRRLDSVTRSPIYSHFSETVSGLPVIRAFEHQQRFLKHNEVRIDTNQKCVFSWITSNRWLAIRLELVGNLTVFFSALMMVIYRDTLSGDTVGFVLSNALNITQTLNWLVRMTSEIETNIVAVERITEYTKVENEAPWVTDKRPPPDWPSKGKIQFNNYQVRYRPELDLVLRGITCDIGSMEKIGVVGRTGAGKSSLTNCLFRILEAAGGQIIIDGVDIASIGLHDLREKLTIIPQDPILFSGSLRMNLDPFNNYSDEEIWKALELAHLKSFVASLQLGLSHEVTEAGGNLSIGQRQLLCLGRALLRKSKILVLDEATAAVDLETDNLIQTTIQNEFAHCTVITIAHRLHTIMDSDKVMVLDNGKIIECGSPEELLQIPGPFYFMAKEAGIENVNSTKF
Chain of Bile salt export pump (O95342 whole entry): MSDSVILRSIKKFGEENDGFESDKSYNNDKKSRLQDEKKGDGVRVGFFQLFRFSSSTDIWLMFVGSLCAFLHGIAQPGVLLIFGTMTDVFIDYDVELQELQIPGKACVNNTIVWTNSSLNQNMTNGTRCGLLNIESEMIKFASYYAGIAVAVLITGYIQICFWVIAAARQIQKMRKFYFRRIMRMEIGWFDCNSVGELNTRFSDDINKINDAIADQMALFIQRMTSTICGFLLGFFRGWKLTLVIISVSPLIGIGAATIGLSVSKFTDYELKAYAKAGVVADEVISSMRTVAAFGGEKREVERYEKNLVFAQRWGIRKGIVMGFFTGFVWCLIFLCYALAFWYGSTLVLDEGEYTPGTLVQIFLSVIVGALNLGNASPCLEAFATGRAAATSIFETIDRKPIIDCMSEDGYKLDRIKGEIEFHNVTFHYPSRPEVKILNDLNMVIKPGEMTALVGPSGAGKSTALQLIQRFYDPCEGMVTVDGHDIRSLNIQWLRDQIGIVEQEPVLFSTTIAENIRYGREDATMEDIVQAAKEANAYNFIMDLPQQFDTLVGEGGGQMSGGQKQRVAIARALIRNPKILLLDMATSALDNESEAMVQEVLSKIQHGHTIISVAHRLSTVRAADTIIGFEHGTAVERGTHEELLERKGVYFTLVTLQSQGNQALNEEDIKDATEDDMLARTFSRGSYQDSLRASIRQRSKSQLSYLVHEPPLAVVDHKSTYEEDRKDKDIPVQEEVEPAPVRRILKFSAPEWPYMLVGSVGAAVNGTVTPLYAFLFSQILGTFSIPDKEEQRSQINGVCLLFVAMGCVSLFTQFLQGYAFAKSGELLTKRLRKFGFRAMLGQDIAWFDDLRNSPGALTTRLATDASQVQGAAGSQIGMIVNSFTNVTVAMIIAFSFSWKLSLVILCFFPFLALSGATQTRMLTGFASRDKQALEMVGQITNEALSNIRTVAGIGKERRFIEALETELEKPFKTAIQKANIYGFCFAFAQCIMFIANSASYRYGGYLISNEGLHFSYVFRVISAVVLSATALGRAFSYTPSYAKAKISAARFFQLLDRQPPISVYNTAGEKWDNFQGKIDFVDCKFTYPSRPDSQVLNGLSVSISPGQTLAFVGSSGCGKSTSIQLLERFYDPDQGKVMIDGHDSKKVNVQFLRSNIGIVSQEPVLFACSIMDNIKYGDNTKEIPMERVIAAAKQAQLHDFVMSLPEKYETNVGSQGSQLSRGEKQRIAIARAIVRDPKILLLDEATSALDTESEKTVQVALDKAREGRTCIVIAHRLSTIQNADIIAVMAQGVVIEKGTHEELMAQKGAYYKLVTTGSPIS

`CC(=O)N1CCN(c2ccc(OCC3COC(Cn4ccnc4)(c4ccc(Cl)cc4Cl)O3)cc2)CC1` (stereo not drawn) [KETOCONAZOLE]: the results for the IC50 in data set [1], in data set [2] and in [3] were above 133 µM, above 133 µM and 69 µM, respectively. In addition, in data set [4], the AUC at 24 h was 31.1 µM·h. Moreover, in [5], the concentration at 24 h turned out to be 1300 nM. Also, the Ratio in [6] was 0.381; in [7], 0.019.
For `OCCN(CCO)c1nc(N2CCCCC2)c2nc(N(CCO)CCO)nc(N3CCCCC3)c2n1` [DIPYRIDAMOLE], the IC50 on Bile salt export pump is 4 µM; in data set [1], above 133 µM; in data set [2], above 133 µM; in data set [3], 8.3 µM. The area under the curve (AUC) at 6 h in data set [8] is 6.82 µM·h. Moreover, in [9], the concentration at 6 h was 1140 nM. For the same compound, the Ratio in [10] is reported as 0.303; in data set [11], 0.137.
`Cc1c(C)c2c(c(C)c1O)CCC(C)(COc1ccc(CC3SC(=O)NC3=O)cc1)O2` (stereo not drawn) [TROGLITAZONE]: the results for the concentration for half-maximal inhibition (IC50) (on Bile salt export pump; in data set [2]; in data set [3]) were 3 µM, 31 µM and 61 µM, respectively. In addition, the AUC at 24 h in data set [12] came to 22.5 µM·h. In data set [13], the concentration at 24 h came to 939 nM. In addition, the Ratio in data set [14] was 0.313; in [15], 0.03; in data set [16], 0.015.
Regarding `CC(C)(C)NC(=O)[C@@H]1CN(Cc2cccnc2)CCN1C[C@@H](O)C[C@@H](Cc1ccccc1)C(=O)N[C@H]1c2ccccc2C[C@H]1O.O`, the half-inhibitory concentration (IC50) in data set [1] is above 133 µM; in data set [2], 83 µM; in [3] it was above 133 µM. The AUC at 8 h in [17] turned out to be 45.1 µM·h. For the same compound, in data set [18], the concentration at 8 h stood at 5640 nM. In addition, the Ratio in data set [19] was found to be 0.266; in [20], 0.068.
`COc1ccc(/C=C/C(=O)Nc2ccccc2C(=O)O)cc1OC`: the IC50 at Bile salt export pump was 41.5 µM; in [1], above 133 µM; in data set [2], above 133 µM; in data set [3], 1 µM. The compound also displayed an AUC at 24 h in [21] of 284 µM·h. Moreover, the concentration at 24 h in [22] is 11800 nM. Besides, the Ratio in [23] is 0.286; in data set [24], 11.849.
